Reference: patent US20240277722A1, “CANCER THERAPY USING A COMBINATION OF CDK7 INHIBITOR WITH AN ANTI-CANCER AGENT” (Aurigene Oncology Limited, priority 2021, published 2024)
Where “and” joins values, the source holds several entries; their conditions need not be identical. Equal values may be shown once. Read-outs that look alike come from different tables or passages of the source.

How the values were obtained:
Z-138 cells = assay: Z-138 cell proliferation, CTG reagent, 3-day treatment, single agents and combination (CompuSyn synergy analysis); assay type: cell-based
Method: Z-138 cells were treated with serial dilutions of Compound-44A (CDK7 inhibitor), serial dilutions of venetoclax individually and in combination for 3 days. The effect of 3-day compound treatment on cell proliferation was measured using CTG reagent. Percentage inhibition of cell proliferation in individual (Compound-44A, venetoclax) and combination treatments (Compound-44A+venetoclax) were analyzed using CompuSyn software to assess synergy.

MCF-7 cells = assay: MCF-7 cell proliferation, CTG reagent, 6-day treatment, single agents and combination (CompuSyn synergy analysis); assay type: cell-based
Method: The effect of 6-day compound treatment on cell proliferation was measured using CTG reagent.

In the case of CC(C)[C@H](C(=O)Nc1cc(C2CC2)[nH]n1)c1cccc(-c2ccc(NC(=O)/C=C/CN3CCOCC3)nc2)c1 (single isomer, unassigned) [Compound-44A], the “% Inhibition of proliferation” value (Z-138 cells; Compound-44A 0.0015 μM, Day-3) is reported as −1.8% and 3.5%, the “% Inhibition of proliferation” value (Z-138 cells; Compound-44A 0.0046 μM, Day-3) is reported as 5.8% and 5.6% and −3.4% and the “% Inhibition of proliferation” value (Z-138 cells; Compound-44A 0.0412 μM, Day-3) is reported as 63.6% and 62.2%. The “% Inhibition of proliferation” value (Z-138 cells; Compound-44A 0.1235 μM, Day-3) was 72.1% and 74.5%, the “% Inhibition of proliferation” value (Z-138 cells; Compound-44A 0.3704 μM, Day-3) was 77.2% and 77.3% and the “% Inhibition of proliferation” value (Z-138 cells; Compound-44A 1.1111 μM, Day-3) was 99.3% and 98.8%. The “% Inhibition of proliferation” value (Z-138 cells; Compound-44A 3.3333 μM, Day-3) was 99.9%, the “% Inhibition of proliferation” value (Z-138 cells; Compound-44A 10.0000 μM, Day-3) was 99.9% and the inhibition at 0.0015 µM (Z-138 cells; Homo sapiens, Z-138, 72 h, Venetoclax 0.0 μM + Compound-44A 0.0015 μM, 3 days) was 2%. For the same molecule, the inhibition at 0.0412 µM (Z-138 cells; Homo sapiens, Z-138, 72 h, Venetoclax 0.0 μM + Compound-44A 0.0412 μM, 3 days, read-out: % Inhibition in proliferation) was 63%, the inhibition at 0.1235 µM (Z-138 cells; Homo sapiens, Z-138, 72 h, Venetoclax 0.0 μM + Compound-44A 0.1235 μM, 3 days, read-out: % Inhibition in proliferation) was 73% and the inhibition at 0.3704 µM (Z-138 cells; Homo sapiens, Z-138, 72 h, Venetoclax 0.0 μM + Compound-44A 0.3704 μM, 3 days, read-out: % Inhibition in proliferation) was 77%. The inhibition at 1.1111 µM (Z-138 cells; Homo sapiens, Z-138, 72 h, Venetoclax 0.0 μM + Compound-44A 1.1111 μM, 3 days, read-out: % Inhibition in proliferation) was 99%, the inhibition at 0.0412 µM (Z-138 cells; Homo sapiens, Z-138, Compound-44A 0.0412 μM, Day-3, read-out: % Inhibition of proliferation) was 62.1% and the inhibition at 0.1235 µM (Z-138 cells; Homo sapiens, Z-138, Compound-44A 0.1235 μM, Day-3, read-out: % Inhibition of proliferation) was 72.4%. It also gave an inhibition at 0.3704 µM (Z-138 cells; Homo sapiens, Z-138, Compound-44A 0.3704 μM, Day-3, read-out: % Inhibition of proliferation) of 76.6%, an inhibition at 1.1111 µM (Z-138 cells; Homo sapiens, Z-138, Compound-44A 1.1111 μM, Day-3, read-out: % Inhibition of proliferation) of 99.4% and an inhibition at 3.3333 µM (Z-138 cells; Homo sapiens, Z-138, Compound-44A 3.3333 μM, Day-3) of 100%. The inhibition at 10 µM (Z-138 cells; Homo sapiens, Z-138, Compound-44A 10.0000 μM, Day-3) was 100%, the “synergy in inhibiting the proliferation of leukemia cancer cell line Z-138” value (Z-138 cells; in combination with venetoclax) was “synergy” and the “inhibition of proliferation in Z-138 cells” value (Z-138 cells; single agent, serial dilutions, 3 days) was “dose dependent inhibition of proliferation”. The “% Inhibition of proliferation” value (MCF-7 cells; Compound-44A 0.006272 nM, Day-6) was −4.1% and −1.7% and 4.8%, the “% Inhibition of proliferation” value (MCF-7 cells; Compound-44A 0.018817 nM, Day-6) was 4.6% and 3.8% and the “% Inhibition of proliferation” value (MCF-7 cells; Compound-44A 0.056450 nM, Day-6) was −11.5% and −2.9% and −2.8%. For the same molecule, the “% Inhibition of proliferation” value (MCF-7 cells; Compound-44A 4.5725 nM, Day-6) was 12.9% and 11.7%, the “% Inhibition of proliferation” value (MCF-7 cells; Compound-44A 13.7174 nM, Day-6) was 44.3% and 47.5% and the “% Inhibition of proliferation” value (MCF-7 cells; Compound-44A 41.1523 nM, Day-6) was 75.4% and 75.5%. The “% Inhibition of proliferation” value (MCF-7 cells; Compound-44A 123.4568 nM, Day-6) was 84%, the “% Inhibition of proliferation” value (MCF-7 cells; Compound-44A 370.3704 nM, Day-6) was 87.5% and 86.2% and the “% Inhibition of proliferation” value (MCF-7 cells; Compound-44A 1111.11 nM, Day-6) was 106.1%. For the same molecule, the “% Inhibition of proliferation” value (MCF-7 cells; Compound-44A 3333.333 nM, Day-6) was 106.1% and 106.3%, the “% Inhibition of proliferation” value (MCF-7 cells; Compound-44A 10000 nM, Day-6) was 106.4% and 106.3% and the “% Inhibition of proliferation” value (MCF-7 cells; Compound-44A 30000 nM, Day-6) was 112.3%. It also gave an inhibition at 0.0005 µM (MCF-7 cells; Homo sapiens, MCF7, 144 h, Fulvestrant 0 nM + Compound-44A 0.50 nM, 6 days) of 4%, an inhibition at 0.0015 µM (MCF-7 cells; Homo sapiens, MCF7, 144 h, Fulvestrant 0 nM + Compound-44A 1.50 nM, 6 days) of 4% and an inhibition at 0.041 µM (MCF-7 cells; Homo sapiens, MCF7, 144 h, Fulvestrant 0 nM + Compound-44A 41.00 nM, 6 days) of 74%. The inhibition at 0.123 µM (MCF-7 cells; Homo sapiens, MCF7, 144 h, Fulvestrant 0 nM + Compound-44A 123.00 nM, 6 days) was 83%, the inhibition at 0.3703 µM (MCF-7 cells; Homo sapiens, MCF7, 144 h, Fulvestrant 0 nM + Compound-44A 370.30 nM, 6 days) was 87% and the inhibition at 18.82 pM (MCF-7 cells; Homo sapiens, MCF7, Compound-44A 0.018817 nM, Day-6) was 2.9%. For the same molecule, the inhibition at 0.0045725 µM (MCF-7 cells; Homo sapiens, MCF7, Compound-44A 4.5725 nM, Day-6) was 13.6%, the inhibition at 0.0137174 µM (MCF-7 cells; Homo sapiens, MCF7, Compound-44A 13.7174 nM, Day-6) was 48.3% and the inhibition at 0.0411523 µM (MCF-7 cells; Homo sapiens, MCF7, Compound-44A 41.1523 nM, Day-6) was 71.6%. For the same molecule, the inhibition at 0.123457 µM (MCF-7 cells; Homo sapiens, MCF7, Compound-44A 123.4568 nM, Day-6) was 81.6%, the inhibition at 0.37037 µM (MCF-7 cells; Homo sapiens, MCF7, Compound-44A 370.3704 nM, Day-6) was 88.5% and the inhibition at 1.11111 µM (MCF-7 cells; Homo sapiens, MCF7, Compound-44A 1111.11 nM, Day-6) was 105%. It also gave an inhibition at 3.33333 µM (MCF-7 cells; Homo sapiens, MCF7, Compound-44A 3333.333 nM, Day-6) of 106%, an inhibition at 10 µM (MCF-7 cells; Homo sapiens, MCF7, Compound-44A 10000 nM, Day-6) of 106% and an inhibition at 30 µM (MCF-7 cells; Homo sapiens, MCF7, Compound-44A 30000 nM, Day-6) of 112%. For the same molecule, the “synergy in inhibiting the proliferation of breast cancer cell line MCF-7” value (MCF-7 cells; in combination with fulvestrant) was “synergy” and the “inhibition of proliferation in MCF-7 cells” value (MCF-7 cells; single agent, serial dilutions, 6 days) was “dose dependent inhibition of proliferation”.
